We go through 14 compounds from patent US8129371B2, “Thienopyrimidine and pyrazolopyrimidine compounds and their use as mTOR kinase and PI3 kinase inhibitors” (Wyeth LLC, priority 2007, dated 2012).

For one experiment, the system named is breast line MDA468. Put plainly: In vitro cell culture growth assay (MTS), MDA468. Type of experiment: cell-based. The note with it: Homo sapiens, 72 h, MDA468 cells, three days after drug treatment. An outline of the steps: (§1)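 Cells were plated and, one day later, treated with inhibitors. Three days after treatment, viable cell density was measured by MTS dye conversion, read as absorbance at 490 nm. Effects are expressed as percent of control growth versus vehicle-treated cells on the same plate.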

The next experiment relates to prostate line LNCap. The experiment is described as follows: In vitro cell culture growth assay (MTS), LNCap. Type of experiment: cell-based. The note with it: Homo sapiens, LNCaP, 72 h, LNCap cells, three days after drug treatment. An outline of the steps: as §1
The target of another experiment is T1, Human mTOR (FLAG-TOR) (Homo sapiens, UniProt P42345).
T1 construct: FLAG
The experiment is described as follows: Human mTOR kinase assay with purified enzyme, DELFIA format. Type of experiment: biochemical. Summed up:
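Purified FLAG-mTOR in HEPES pH 7.4 buffer with 10 mM MnCl2 was preincubated with inhibitor and reacted 2 h at room temperature with His6-S6K substrate, then stopped with EDTA/EGTA. Phospho-T389 S6K detected by DELFIA with Eu-labelled antibody (40 ng/mL) after plate capture; inhibition computed from signal.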

The target in experiment [1] is T2, PI3K (Homo sapiens, UniProt P48736).
T2 construct: PI3 Kinase γ IC50; other: PI3 Kinase γ; other: PI3 Kinase γ isoform, fluorescence polarization
T2 sequence (P48736 whole entry, canonical isoform): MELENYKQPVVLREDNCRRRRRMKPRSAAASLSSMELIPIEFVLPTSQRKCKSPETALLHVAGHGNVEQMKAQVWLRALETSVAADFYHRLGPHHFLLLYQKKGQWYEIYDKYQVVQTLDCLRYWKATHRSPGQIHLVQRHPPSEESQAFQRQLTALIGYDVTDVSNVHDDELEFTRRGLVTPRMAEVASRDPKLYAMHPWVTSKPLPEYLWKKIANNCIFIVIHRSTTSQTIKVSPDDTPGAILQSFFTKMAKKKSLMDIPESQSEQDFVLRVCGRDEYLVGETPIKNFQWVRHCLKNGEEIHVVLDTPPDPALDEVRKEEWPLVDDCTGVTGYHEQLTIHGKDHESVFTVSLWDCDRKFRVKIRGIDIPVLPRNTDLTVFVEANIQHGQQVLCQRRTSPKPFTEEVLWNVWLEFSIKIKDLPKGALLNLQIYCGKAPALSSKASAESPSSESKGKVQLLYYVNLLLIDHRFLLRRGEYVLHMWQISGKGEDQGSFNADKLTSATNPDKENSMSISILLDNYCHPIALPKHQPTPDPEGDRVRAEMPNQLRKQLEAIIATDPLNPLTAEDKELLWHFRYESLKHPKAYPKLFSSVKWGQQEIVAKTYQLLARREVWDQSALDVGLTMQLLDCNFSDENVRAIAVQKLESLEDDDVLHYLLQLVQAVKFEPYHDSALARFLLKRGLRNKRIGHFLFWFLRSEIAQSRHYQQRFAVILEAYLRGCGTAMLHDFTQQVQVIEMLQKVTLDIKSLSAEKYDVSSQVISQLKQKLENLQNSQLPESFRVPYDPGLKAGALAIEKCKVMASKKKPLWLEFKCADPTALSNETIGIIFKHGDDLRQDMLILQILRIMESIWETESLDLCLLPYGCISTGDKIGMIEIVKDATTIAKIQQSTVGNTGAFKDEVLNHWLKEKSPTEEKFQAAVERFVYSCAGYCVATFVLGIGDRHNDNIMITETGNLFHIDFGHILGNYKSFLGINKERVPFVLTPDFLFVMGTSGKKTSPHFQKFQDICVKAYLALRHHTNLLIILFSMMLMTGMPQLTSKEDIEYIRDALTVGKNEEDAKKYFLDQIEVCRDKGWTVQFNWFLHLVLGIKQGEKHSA
The experiment is described as follows: Fluorescence polarization assay for PI3K. Type of experiment: biochemical. As to conditions: PI3 Kinase γ; read-out: PI3 Kinase γ IC50. Summed up:
(§2)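 PI3K was preincubated with compound (final DMSO 1%), and the reaction was started with PIP2/ATP substrate and run 30–60 min. It was stopped with a detector mix giving 10 nM red probe and 70 nM GST-GRP.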

The target in experiment [2] is T3, PI3K (Homo sapiens, UniProt P42336).
T3 construct: PI3 Kinase α IC50; other: PI3 Kinase α; other: PI3 Kinase α isoform, fluorescence polarization
T3 sequence (P42336 whole entry, canonical isoform): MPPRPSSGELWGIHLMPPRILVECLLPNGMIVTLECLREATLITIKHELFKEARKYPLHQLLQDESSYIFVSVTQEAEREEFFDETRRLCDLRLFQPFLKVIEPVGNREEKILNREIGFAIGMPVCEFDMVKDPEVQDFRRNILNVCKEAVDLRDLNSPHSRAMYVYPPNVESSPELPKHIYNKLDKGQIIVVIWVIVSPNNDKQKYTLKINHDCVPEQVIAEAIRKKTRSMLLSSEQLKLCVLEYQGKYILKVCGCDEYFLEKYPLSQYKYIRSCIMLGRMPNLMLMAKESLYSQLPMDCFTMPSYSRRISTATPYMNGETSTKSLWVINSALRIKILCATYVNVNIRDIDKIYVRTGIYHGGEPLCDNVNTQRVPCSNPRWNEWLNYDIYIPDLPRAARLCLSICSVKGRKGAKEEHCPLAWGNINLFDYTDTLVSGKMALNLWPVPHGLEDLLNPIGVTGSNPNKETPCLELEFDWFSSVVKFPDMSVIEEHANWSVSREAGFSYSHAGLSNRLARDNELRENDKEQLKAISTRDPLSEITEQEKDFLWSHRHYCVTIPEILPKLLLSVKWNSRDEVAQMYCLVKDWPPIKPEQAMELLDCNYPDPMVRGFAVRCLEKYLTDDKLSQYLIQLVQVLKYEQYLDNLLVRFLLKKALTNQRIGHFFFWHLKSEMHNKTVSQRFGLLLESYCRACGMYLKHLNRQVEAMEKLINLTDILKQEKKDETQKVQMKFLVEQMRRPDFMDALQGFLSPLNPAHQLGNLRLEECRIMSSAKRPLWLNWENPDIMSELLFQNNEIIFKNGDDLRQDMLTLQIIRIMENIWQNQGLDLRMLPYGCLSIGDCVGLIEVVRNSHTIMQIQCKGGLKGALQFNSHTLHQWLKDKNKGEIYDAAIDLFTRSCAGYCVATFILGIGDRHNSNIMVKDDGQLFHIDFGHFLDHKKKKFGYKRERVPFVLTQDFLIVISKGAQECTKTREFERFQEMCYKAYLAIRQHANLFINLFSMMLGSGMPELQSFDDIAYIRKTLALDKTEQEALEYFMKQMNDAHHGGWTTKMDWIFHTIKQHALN
The experiment is described as follows: Fluorescence polarization assay for PI3K. Type of experiment: biochemical. The note with it: PI3 Kinase α; read-out: PI3 Kinase α IC50. Summed up:
as §2

As for `CN(C)c1ccc(NC(=O)Nc2ccc(-c3nc(N4CC5CCC(C4)O5)c4cnn(CCF)c4n3)cc2)cc1` [Example 242, 1-[4-(dimethylamino)phenyl]-3-{4-[1-(2-fluoroethyl)-4-(8-oxa-3-azabicyclo[3.2.1]oct-3-yl)-1H-pyrazolo[3,4-d]pyrimidin-6-yl]phenyl}urea], the IC50 in the experiment on breast line MDA468 was 19 nM; in the experiment with prostate line LNCap, 4 nM; at Human mTOR (FLAG-TOR), 0.655 nM; at PI3K [1], greater than 10000 nM; at PI3K [2], 869 nM.
Regarding `CN(C)CCOc1ccc(NC(=O)Nc2ccc(-c3nc(N4CC5CCC(C4)O5)c4cnn(CCF)c4n3)cc2)cc1` [Example 243, 1-{4-[2-(dimethylamino)ethoxy]phenyl}-3-{4-[1-(2-fluoroethyl)-4-(8-oxa-3-azabicyclo[3.2.1]oct-3-yl)-1H-pyrazolo[3,4-d]pyrimidin-6-yl]phenyl}urea], the IC50 was found to be 9 nM in the experiment on breast line MDA468; 4 nM with prostate line LNCap; 0.835 nM against Human mTOR (FLAG-TOR); 1300 nM at PI3K [1]; 116 nM on PI3K [2].
As to `O=C(Nc1ccc(-c2nc(N3CC4CCC(C3)O4)c3cnn(CCF)c3n2)cc1)Nc1ccc(N2CCOCC2)cc1` [Example 244, 1-{4-[1-(2-fluoroethyl)-4-(8-oxa-3-azabicyclo[3.2.1]oct-3-yl)-1H-pyrazolo[3,4-d]pyrimidin-6-yl]phenyl}-3-(4-morpholin-4-ylphenyl)urea], the IC50 is 7 nM with breast line MDA468; 1 nM in the experiment with prostate line LNCap; 0.185 nM at Human mTOR (FLAG-TOR); greater than 10000 nM on PI3K [1]; 739 nM at PI3K [2].
As to `O=C(Nc1ccc(-c2nc(N3CC4CCC(C3)O4)c3cnn(CCF)c3n2)cc1)OCCO` [Example 245, 2-hydroxyethyl {4-[1-(2-fluoroethyl)-4-(8-oxa-3-azabicyclo[3.2.1]oct-3-yl)-1H-pyrazolo[3,4-d]pyrimidin-6-yl]phenyl}carbamate], the half-maximal inhibitory concentration (IC50) was 900 nM with breast line MDA468; 130 nM with prostate line LNCap; 1.2 nM at Human mTOR (FLAG-TOR); greater than 10000 nM at PI3K [1]; 2900 nM at PI3K [2].
In the same order, the values of `CN1CCN(c2ccc(NC(=O)Nc3ccc(-c4nc(N5CC6CCC(C5)O6)c5cnn(CCF)c5n4)cc3)cc2)CC1` [Example 246, 1-{4-[1-(2-fluoroethyl)-4-(8-oxa-3-azabicyclo[3.2.1]oct-3-yl)-1H-pyrazolo[3,4-d]pyrimidin-6-yl]phenyl}-3-[4-(4-methylpiperazin-1-yl)phenyl]urea] are 7 nM, less than 1 nM, 0.698 nM, 1560 nM and 96 nM.
With `CCNC(=O)Nc1ccc(-c2nc(N3CC4CCC(C3)O4)c3cnn(CCF)c3n2)cc1` [Example 247, 1-ethyl-3-{4-[1-(2-fluoroethyl)-4-(8-oxa-3-azabicyclo[3.2.1]oct-3-yl)-1H-pyrazolo[3,4-d]pyrimidin-6-yl]phenyl}urea], the concentration for half-maximal inhibition (IC50) is 400 nM with breast line MDA468; 90 nM with prostate line LNCap; 0.7 nM on Human mTOR (FLAG-TOR); greater than 10000 nM on PI3K [1]; 1360 nM on PI3K [2].
For `O=C(Nc1ccc(-c2nc(N3CC4CCC(C3)O4)c3cnn(CCF)c3n2)cc1)NC1CC1` [Example 248, 1-cyclopropyl-3-{4-[1-(2-fluoroethyl)-4-(8-oxa-3-azabicyclo[3.2.1]oct-3-yl)-1H-pyrazolo[3,4-d]pyrimidin-6-yl]phenyl}urea], the 50% inhibitory concentration (IC50) was 500 nM in the experiment on breast line MDA468; 90 nM with prostate line LNCap; 0.765 nM on Human mTOR (FLAG-TOR); greater than 10000 nM on PI3K [1]; 1820 nM at PI3K [2].
`O=C(Nc1ccncc1)Nc1ccc(-c2nc(N3CC4CCC(C3)O4)c3cnn(CCF)c3n2)cc1` [Example 249, 1-{4-[1-(2-fluoroethyl)-4-(8-oxa-3-azabicyclo[3.2.1]oct-3-yl)-1H-pyrazolo[3,4-d]pyrimidin-6-yl]phenyl}-3-pyridin-4-ylurea]: the IC50 with breast line MDA468 was 8 nM; with prostate line LNCap it was less than 1 nM; against Human mTOR (FLAG-TOR), 0.185 nM; on PI3K [1], 1200 nM; on PI3K [2], 102 nM.
On to `O=C(Nc1ccc(CO)cc1)Nc1ccc(-c2nc(N3CC4CCC(C3)O4)c3cnn(CCF)c3n2)cc1` [Example 250, 1-{4-[1-(2-fluoroethyl)-4-(8-oxa-3-azabicyclo[3.2.1]oct-3-yl)-1H-pyrazolo[3,4-d]pyrimidin-6-yl]phenyl}-3-[4-(hydroxymethyl)phenyl]urea], for which the half-inhibitory concentration (IC50) with breast line MDA468 was 4 nM; in the experiment on prostate line LNCap it was less than 1 nM; against Human mTOR (FLAG-TOR), 0.086 nM; on PI3K [1] it was 952 nM; on PI3K [2] it was 34 nM.
Consider `O=C(Nc1ccc(-c2nc(N3CC4CCC(C3)O4)c3cnn(CC(F)(F)F)c3n2)cc1)Nc1ccc(N2CCOCC2)cc1` [Example 251, 1-(4-morpholin-4-ylphenyl)-3-{4-[4-(8-oxa-3-azabicyclo[3.2.1]oct-3-yl)-1-(2,2,2-trifluoroethyl)-1H-pyrazolo[3,4-d]pyrimidin-6-yl]phenyl}urea], for which the IC50 with breast line MDA468 is less than 1 nM; in the experiment with prostate line LNCap, less than 1 nM; on Human mTOR (FLAG-TOR), 0.34 nM; on PI3K [1], greater than 10000 nM; on PI3K [2] it was 1000 nM.
For `O=C(Nc1ccc(-c2nc(N3CC4CCC(C3)O4)c3cnn(CC(F)(F)F)c3n2)cc1)Nc1ccc(N2CCOCC2)nc1` [Example 252, 1-(6-morpholin-4-ylpyridin-3-yl)-3-{4-[4-(8-oxa-3-azabicyclo[3.2.1]oct-3-yl)-1-(2,2,2-trifluoroethyl)-1H-pyrazolo[3,4-d]pyrimidin-6-yl]phenyl}urea], the IC50 with breast line MDA468 was 8 nM; in the experiment with prostate line LNCap, 1 nM; against Human mTOR (FLAG-TOR), 0.465 nM; at PI3K [1] it was greater than 10000 nM; on PI3K [2] it was 9500 nM.
Turning to `O=C(Nc1ccc(CO)cc1)Nc1ccc(-c2nc(N3CC4CCC(C3)O4)c3cnn(CC(F)(F)F)c3n2)cc1` [Example 253, 1-[4-(hydroxymethyl)phenyl]-3-{4-[4-(8-oxa-3-azabicyclo[3.2.1]oct-3-yl)-1-(2,2,2-trifluoroethyl)-1H-pyrazolo[3,4-d]pyrimidin-6-yl]phenyl}urea], the half-inhibitory concentration (IC50) is less than 1 nM in the experiment with breast line MDA468; 1 nM in the experiment with prostate line LNCap; 0.15 nM against Human mTOR (FLAG-TOR); 780 nM at PI3K [1]; 56 nM on PI3K [2].
Regarding `Nc1cccc(COC(=O)Nc2ccc(-c3nc(N4CC5CCC(C4)O5)c4cnn(CC(F)(F)F)c4n3)cc2)c1` [Example 254, 3-aminobenzyl {4-[4-(8-oxa-3-azabicyclo[3.2.1]oct-3-yl)-1-(2,2,2-trifluoroethyl)-1H-pyrazolo[3,4-d]pyrimidin-6-yl]phenyl}carbamate], the IC50 was determined as 200 nM with breast line MDA468; 6200 nM in the experiment with prostate line LNCap; 1620 nM at Human mTOR (FLAG-TOR); 12000 nM on PI3K [1]; 9650 nM at PI3K [2].
As for `O=C(Nc1ccc(-c2nc(N3CC4CCC(C3)O4)c3cnn(CC(F)(F)F)c3n2)cc1)Nc1cccc(CO)c1` [Example 255, 1-[3-(hydroxymethyl)phenyl]-3-{4-[4-(8-oxa-3-azabicyclo[3.2.1]oct-3-yl)-1-(2,2,2-trifluoroethyl)-1H-pyrazolo[3,4-d]pyrimidin-6-yl]phenyl}urea], the half-inhibitory concentration (IC50) in the experiment on breast line MDA468 turned out to be 30 nM; in the experiment with prostate line LNCap, 6 nM; against Human mTOR (FLAG-TOR), 0.595 nM; at PI3K [1], 730 nM; at PI3K [2], 105 nM.
